From US20260128119A1, “SCREENING METHODS FOR ACINETOBACTER BAUMANNII SPOT ENZYME MODULATORS” (priority 2022, published 2026) come the findings set out here.

One data set relates to SpoTAb^NTD. In words: Isothermal titration calorimetry (ITC) of ligand binding to SpoTAb^NTD. Details: species or system Acinetobacter baumannii. From the text: This is also the case with the specialisation of SpoTAb as a monofunctional hydrolase where the pseudo-SYNTH domain has evolved into a strictly regulatory/structural domain. […] These involve the residues that coordinate adenosine and guanosine (R249 to N241, R277 to E267 and Y329 to N304) and the majority of phosphate-coordinating groups. Crucially, the catalytic residues D272 and Q347 are substituted for S263 and T321, respectively. […]; Roghanian et al., Mol Cell, 2021).
To directly validate the lack of pppGpp-mediated regulation in SpoTAb, we characterised the interaction between pppGpp and SpoTAb^NTD by ITC. […] Following the experimental approach used earlier for SpoTEc (Roghanian et al., Mol Cell, 2021), we next grafted the allosteric site of A. baumannii RelA (^236RelA^246) onto SpoTAb^NTD (replacing ^201SpoTAb^211).
The essential role of the divalent manganese ion Mn^2+ in (p)ppGpp pyrophosphate hydrolysis is well documented for both Rel (Hogg et al., Cell, 2004; Takada et al., Nucleic Acids Res, 2021; Avarbock et al., Biochemistry, 2000; Van Nerom et al., Acta Crystallogr F Struct Biol Commun, 2019) and SpoTEc (Heinemeyer et al., Eur J Biochem, 1978).
For orientation: In ITC the heat of successive injections is recorded.

The test system of a further data set is SpoTAb. In words: HD (ppGpp hydrolysis) activity of SpoTAb in presence of added factors. In kind it is biochemical, Acinetobacter baumannii. Particulars: metal-free full-length SpoTAb (completely HD inactive). The text has this:
FIG. 1. Full-length monomeric A. baumannii SpoT adopts a compact “mushroom”-shaped HD-active τ-state. (a) Structure of “mushroom”-shaped SpoTAb-ppGpp complex in the τ-state. The domain organization, from N to C terminus: NTD domains hydrolase (HD), pseudo-synthetase (pseudo-SYNTH) and Core, and CTD domains, TGS, Helical (HEL), Zn-finger (ZFD) and RNA recognition motif (RRM). The ppGpp alarmone is labelled. (b) Cartoon representation the SpoTAb. The “stem” of the mushroom is formed by the enzymatic HD domain and the “cap” by the regulatory domains: NTD pseudo-SYNTH domain and the CTD domains. (c) Ribbon representation of the SpoTAb-ppGpp complex. The α6/α7 motif is held in the hydrolysis-compatible position by the folded Core domain and the TGS β-hairpin, with the Core domain communicating allosteric signals to HD from the regulatory domains. […] (e) Analytical size exclusion chromatography (SEC) of SpoTAb supports its monomeric nature in solution. (f) Experimental X-ray scattering (SAXS) analysis of SpoTAb at 8 mg/mL further confirms the monomeric nature of SpoTAb. […] (g) Ab initio envelope of SpoTAb reconstructed from the experimental SAXS data superimposed on the crystal structure.
While the SYNTH and TGS domains are sequestered in the “cap”, the HD hydrolase stands out unconfined and primed for (p)ppGpp hydrolysis. […]

Data set [1] concerns the molecule itself. Put plainly: SEC-SAXS and analytical size exclusion chromatography in solution (oligomeric state, self-association). On the technique in general: SEC sorts molecules by how far they enter the pores of the column.

For `Nc1nc2c(ncn2C2OC(COP(=O)(O)OP(=O)(O)OP(=O)(O)O)C(OP(=O)(O)OP(=O)(O)O)C2O)c(=O)[nH]1` (stereo not shown) [pppGpp, guanosine pentaphosphate], in the data set on SpoTAb^NTD, the “allosteric binding of pppGpp” value was “does not bind”.

Regarding `Nc1nc2c(ncn2[C@@H]2O[C@H](COP(=O)(O)OP(=O)(O)O)[C@@H](O)[C@H]2O)c(=O)[nH]1` [GDP], the “GDP binding by SpoTAb” value with SpoTAb^NTD was “does not bind”.

Regarding `[Mn+2]` [Mn^2+], the “HD activity upon addition to metal-free enzyme” value in the data set with SpoTAb was “readily restored”.

B1: Acinetobacter baumannii SpoT enzyme (enzyme)
chain: MPGEEVSQAKQQLKLIIDPYLSVSEVEKVLAACDFGDLAHTGITRKSGEPYILHPIAVSCILANMRLDPETLMAALLHDVIEDTQYTKDDIIERFGQTVAELVDGVTKLSQSSDKEYNKAASFRKILQATLQDPRVIIIKLADRYHNMTTLGALRPDKRARIAQETFDIFVPMARLVGMNEMADNLENLCYQNLDLDMFDNVQNALLQTKPERCKYQSIWEQNLAELLHNYHIQGRIKKKNNNIELLRHFVKNEMDLQELTHSHAFEIVLQSIADCDRLVAALKENFQVIQYQDHIRRPLPGGNQSLMIKLKGEKTTLSLTIQTELMRKAARFGVVLGENAPQTCRSAIQASMQNLNTLIDGECAKTTFNDLLDYLHQEKIWVYTPHGQLHELPQGATVVDFAYSASLFLGNHAVGAKVDGEIKPLSTPLVSGQVIEIITDVLATPNPDWLSFINTQKARRALQHVLKDQDIEEQRLVGAQALSRALKLFNRSINDLSDADWLDLLQWRHIDNKDALFEQIAVGDLLPQLVANHLFANDKHPRAENSDRLIQGTEGIDVKYAHCCNPILGDPIQGHLTRRGLIVHRIRCHNLLHEQHLHPENIMPLQWKADDVDDVRFTAYLAIYMAMNDEQVSDLIYQCRKNNAGVEMVHSNEQRTFVNIVVNNRKHIAKVIRDLRMHYGFPRIERLDAPAPQMEISKVS
notes: Full-length wild-type SpoTAb; also called SpoTAb; A. baumannii SpoT
As for B1, the binding result in data set [1] is “no binding (tested: 8 mg/mL)”.
